From ChEMBL document CHEMBL1201862, “PubChem BioAssay data set” (2004)
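Growth conditions: 96-well plates. Treatment: test compound, 48 hours, 5 concentrations. Analysis: linear interpolation between bracketing concentrations; unreached endpoints set to highest concentration. The concentration for 50% growth inhibition is given as GI50.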 Activity calls are given as the source filed them. No stated cut-off is given here; in the data, active = GI50 up to about 1.1 µM and inactive = higher.

Legend:
Test in all cases: growth of human tumour cells (NCI), 48 h
[1] = test system: NCI-H226
[2] = test system: A498
[3] = test system: 786-0
[4] = test system: HCT-116
[5] = test system: OVCAR-5
[6] = test system: CAKI-1
[7] = test system: UO-31
[8] = test system: OVCAR-3
[9] = test system: MOLT-4
[10] = test system: UACC-62
[11] = test system: IGROV-1
[12] = test system: NCI-H460
[13] = test system: TK-10
[14] = test system: SN12C
[15] = test system: SR
[16] = test system: HOP-62
[17] = test system: NCI-H522
[18] = test system: T47D
[19] = test system: MDA-MB-435

Measured: GI50

COc1cc(Cl)cc(N(O)C(C)=O)c1OCc1ccccc1
inactive: [1] 65.8 µM | [2] > 100 µM | [3] 61.8 µM | [4] 75.2 µM | [5] > 100 µM | [6] > 100 µM | [7] 51.8 µM | [8] 74.6 µM | [9] 50.4 µM | [10] 49.7 µM | [11] > 100 µM | [12] 48.1 µM | [13] 79.4 µM | [14] > 100 µM | [15] 44.3 µM | [16] 65.6 µM | [17] 62.1 µM

Cc1ccc(NC(=O)C(=O)C2C(=O)NC(=O)NC2=O)c(C)c1
inactive: [1] 17.5 µM | [2] > 100 µM | [3] > 100 µM | [4] > 100 µM | [5] > 100 µM | [6] > 100 µM | [7] > 100 µM | [8] > 100 µM | [9] > 100 µM | [10] > 100 µM | [11] > 100 µM | [12] > 100 µM | [13] > 100 µM | [14] 14.9 µM | [15] > 100 µM | [16] > 100 µM | [17] > 100 µM

Cc1nc2nn[nH]n2c(=O)c1CCO
inactive: [1] > 100 µM | [2] > 100 µM | [3] > 100 µM | [4] > 100 µM | [18] > 100 µM | [19] > 100 µM | [5] > 100 µM | [6] > 100 µM | [7] > 100 µM | [8] > 100 µM | [9] > 100 µM | [10] > 100 µM | [11] > 100 µM | [12] > 100 µM | [13] > 100 µM | [14] > 100 µM | [15] > 100 µM | [16] > 100 µM | [17] > 100 µM

CC(=O)OC1=C(CC(C)(C)C)C(=O)c2ccccc2C1=O
inactive: [1] 19.8 µM | [2] 13.5 µM | [3] 39.6 µM | [4] 25.8 µM | [18] 44.2 µM | [19] 21.7 µM | [6] 48.4 µM | [7] 33.4 µM | [10] 32.1 µM | [11] 34.2 µM | [12] 25 µM | [13] 68.9 µM | [15] 20.5 µM | [16] 35.2 µM

[O-][n+]1c2ccccc2[n+]([O-])c2ccccc21
inactive: [1] > 100 µM | [2] > 100 µM | [3] > 100 µM | [4] > 100 µM | [18] 35.3 µM | [19] > 100 µM | [5] > 100 µM | [6] > 100 µM | [7] > 100 µM | [9] 2.74 µM | [10] > 100 µM | [11] 46.5 µM | [12] 30.1 µM | [13] > 100 µM | [14] > 100 µM | [15] 13 µM | [16] > 100 µM | [17] > 100 µM

O=C(CC(O)(C(F)(F)F)C(F)(F)Cl)CC(O)(C(F)(F)F)C(F)(F)Cl (stereo not drawn)
inactive: [1] 2.36 µM | [2] 2.29 µM | [3] 3.47 µM | [4] 1.67 µM | [18] 1.49 µM | [19] 2.19 µM | [6] 2.74 µM | [7] 1.44 µM | [8] 1.62 µM | [9] 6.27 µM | [10] 1.65 µM | [11] 2.47 µM | [12] 1.64 µM | [13] 3.08 µM | [14] 1.5 µM | [15] > 10 µM | [16] 2.09 µM | [17] 1.61 µM
